In article PMC5218480 (PLoS ONE, 2017):

Test system: MV-4-11 cells
Test: Gene expression microarray analysis (Affymetrix PrimeView) and GSEA
Format: cell-based, human
Set-up: RFU PODN (11730768_x_at) / Fold change /veh PODN (11730768_x_at) / RFU LINC00158 (11744669_a_at) / Fold change /veh LINC00158 (11744669_a_at) / RFU DUSP10 (11751237_a_at) / Fold change /veh DUSP10 (11751237_a_at) / RFU ID3 (11757404_x_at) / Fold change /veh ID3 (11757404_x_at) / RFU PLEKHG5 (11737974_s_at) / Fold change /veh PLEKHG5 (11737974_s_at) / RFU LRRC4B (11730491_at) / Fold change /veh LRRC4B (11730491_at) / RFU GIMAP4 (11747438_a_at) / Fold change /veh GIMAP4 (11747438_a_at) / RFU KRT8 (11758183_x_at) / Fold change /veh KRT8 (11758183_x_at) / RFU CNN1 (11734310_a_at) / Fold change /veh CNN1 (11734310_a_at) / RFU VPS37D (11726825_at) / Fold change /veh VPS37D (11726825_at) / RFU C10orf10 (11716522_x_at) / Fold change /veh C10orf10 (11716522_x_at) / RFU KIR2DL2 /// KIR2DL4 /// KIR2DL5A /// KIR2DL5B /// KIR2DS1 /// KIR2DS2 /// KIR2DS3 /// KIR2DS4 /// KIR3DL3 /// KIR3DL3 /// KIR3DS1 (11738374_at) / Fold change /veh KIR2DL2 /// KIR2DL4 /// KIR2DL5A /// KIR2DL5B /// KIR2DS1 /// KIR2DS2 /// KIR2DS3 /// KIR2DS4 /// KIR3DL3 /// KIR3DL3 /// KIR3DS1 (11738374_at) / RFU C1QL1 (11718748_at) / Fold change /veh C1QL1 (11718748_at) / RFU TMPRSS4 (11747572_a_at) / Fold change /veh TMPRSS4 (11747572_a_at) / RFU HAMP (11756126_x_at) / Fold change /veh HAMP (11756126_x_at) / RFU RNFT2 (11725882_a_at) / Fold change /veh RNFT2 (11725882_a_at) / RFU NR4A2 (11747474_a_at) / Fold change /veh NR4A2 (11747474_a_at) / RFU ABCC12 (11746883_a_at) / Fold change /veh ABCC12 (11746883_a_at) / RFU TMEM136 (11760407_x_at) / Fold change /veh TMEM136 (11760407_x_at) / RFU CLDN22 /// WWC2 (11732394_at) / Fold change /veh CLDN22 /// WWC2 (11732394_at) / RFU HLA-DPB1 (11760878_x_at) / Fold change /veh HLA-DPB1 (11760878_x_at) / RFU SPINT1 (11716480_a_at) / Fold change /veh SPINT1 (11716480_a_at) / RFU GAP43 (11754022_s_at) / Fold change /veh GAP43 (11754022_s_at) / RFU A4GNT (11735810_at) / Fold change /veh A4GNT (11735810_at) / RFU PRB3 (11715151_x_at) / Fold change /veh PRB3 (11715151_x_at) / RFU TUBB4B (11761932_at) / Fold change /veh TUBB4B (11761932_at) / RFU CAPN14 (11732068_a_at) / Fold change /veh CAPN14 (11732068_a_at) / RFU TMCC2 (11721928_a_at) / Fold change /veh TMCC2 (11721928_a_at) / RFU IRGQ (11745062_a_at) / Fold change /veh IRGQ (11745062_a_at) / RFU FAM174B (11720279_a_at) / Fold change /veh FAM174B (11720279_a_at) / RFU TMPRSS4 (11748680_a_at) / Fold change /veh TMPRSS4 (11748680_a_at) / RFU FAM212B (11763350_a_at) / Fold change /veh FAM212B (11763350_a_at) / RFU PLEKHG5 (11743358_a_at) / Fold change /veh PLEKHG5 (11743358_a_at) / RFU ZSCAN30 (11745921_a_at) / Fold change /veh ZSCAN30 (11745921_a_at) / RFU CMKLR1 (11741424_a_at) / Fold change /veh CMKLR1 (11741424_a_at) / RFU LOC101060620 /// MAPK8IP1 (11723275_at) / Fold change /veh LOC101060620 /// MAPK8IP1 (11723275_at) / RFU SPTSSB (11747773_x_at) / Fold change /veh SPTSSB (11747773_x_at) / RFU PRSS12 (11739890_at) / Fold change /veh PRSS12 (11739890_at) / RFU BIN1 (11741810_x_at) / Fold change /veh BIN1 (11741810_x_at) / RFU WNT11 (11732464_a_at) / Fold change /veh WNT11 (11732464_a_at) / RFU C10orf10 (11716521_a_at) / Fold change /veh C10orf10 (11716521_a_at) / RFU C5orf56 (11738089_at) / Fold change /veh C5orf56 (11738089_at) / RFU CYB561 (11721691_x_at) / Fold change /veh CYB561 (11721691_x_at) / RFU ANKRD19P (11752326_a_at) / Fold change /veh ANKRD19P (11752326_a_at) / RFU OR2T12 /// OR2T33 /// OR2T8 (11738714_s_at) / Fold change /veh OR2T12 /// OR2T33 /// OR2T8 (11738714_s_at) / RFU VCAN (11748164_a_at) / Fold change /veh VCAN (11748164_a_at) / RFU JSRP1 (11732532_at) / Fold change /veh JSRP1 (11732532_at) / RFU KRTAP10-11 (11738290_x_at) / Fold change /veh KRTAP10-11 (11738290_x_at) / RFU MYO3A (11730013_a_at) / Fold change /veh MYO3A (11730013_a_at) / RFU EBF3 (11725865_a_at) / Fold change /veh EBF3 (11725865_a_at) / RFU CAMK2N1 (11719241_x_at) / Fold change /veh CAMK2N1 (11719241_x_at) / RFU C5orf56 (11738088_a_at) / Fold change /veh C5orf56 (11738088_a_at) / RFU OLFML3 (11715873_a_at) / Fold change /veh OLFML3 (11715873_a_at) / RFU LOC100653217 /// NTM (11731650_a_at) / Fold change /veh LOC100653217 /// NTM (11731650_a_at) / RFU MAPK11 (11762145_a_at) / Fold change /veh MAPK11 (11762145_a_at) / RFU FIZ1 (11724087_x_at) / Fold change /veh FIZ1 (11724087_x_at) / RFU OASL (11726364_x_at) / Fold change /veh OASL (11726364_x_at) / RFU SOX15 (11748057_x_at) / Fold change /veh SOX15 (11748057_x_at) / RFU CD79A (11719716_a_at) / Fold change /veh CD79A (11719716_a_at) / RFU HIST1H1D (11736915_at) / Fold change /veh HIST1H1D (11736915_at) / RFU CASKIN2 (11723855_a_at) / Fold change /veh CASKIN2 (11723855_a_at) / RFU LOC730098 (11760151_x_at) / Fold change /veh LOC730098 (11760151_x_at) / RFU OR4N2 (11742367_at) / Fold change /veh OR4N2 (11742367_at) / RFU PRRT2 (11749266_a_at) / Fold change /veh PRRT2 (11749266_a_at) / RFU SNX32 (11753110_a_at) / Fold change /veh SNX32 (11753110_a_at) / RFU CDHR5 (11726645_a_at) / Fold change /veh CDHR5 (11726645_a_at) / RFU RCAN1 (11760418_a_at) / Fold change /veh RCAN1 (11760418_a_at) / RFU FAM167A (11723789_a_at) / Fold change /veh FAM167A (11723789_a_at) / RFU FAM26E (11764081_at) / Fold change /veh FAM26E (11764081_at) / RFU ISYNA1 (11749810_s_at) / Fold change /veh ISYNA1 (11749810_s_at) / RFU ACY1 (11761880_at) / Fold change /veh ACY1 (11761880_at) / RFU 11764098_at / Fold change /veh 11764098_at / RFU SAMD14 (11745864_x_at) / Fold change /veh SAMD14 (11745864_x_at) / RFU NPB (11741838_a_at) / Fold change /veh NPB (11741838_a_at) / RFU TMPRSS6 (11731388_a_at) / Fold change /veh TMPRSS6 (11731388_a_at) / RFU KRTAP10-2 (11738614_at) / Fold change /veh KRTAP10-2 (11738614_at) / RFU ARHGAP8 /// PRR5-ARHGAP8 (11727945_x_at) / Fold change /veh ARHGAP8 /// PRR5-ARHGAP8 (11727945_x_at) / RFU KRTAP5-7 /// NADSYN1 (11734609_at) / Fold change /veh KRTAP5-7 /// NADSYN1 (11734609_at) / RFU RASL12 (11751679_a_at) / Fold change /veh RASL12 (11751679_a_at) / RFU CDKN2B (11736163_a_at) / Fold change /veh CDKN2B (11736163_a_at) / RFU PRF1 (11729649_at) / Fold change /veh PRF1 (11729649_at) / RFU, ZNF638 /// ZNF638-IT1 / Fold change vs veh, ZNF638 /// ZNF638-IT1 / RFU, PANK3 / Fold change vs veh, PANK3 / RFU, SH3YL1 / Fold change vs veh, SH3YL1 / RFU, ZEB2 / Fold change vs veh, ZEB2 / RFU, NRIP1 / Fold change vs veh, NRIP1 / RFU, PTTG1IP / Fold change vs veh, PTTG1IP / RFU, CAPN2 / Fold change vs veh, CAPN2 / RFU, MED14 / Fold change vs veh, MED14 / RFU, SNORA58 / Fold change vs veh, SNORA58 / RFU, C1orf63 / Fold change vs veh, C1orf63 / RFU, LRRFIP1 / Fold change vs veh, LRRFIP1 / RFU, NDUFAF7 / Fold change vs veh, NDUFAF7 / RFU, SLC12A2 / Fold change vs veh, SLC12A2 / RFU, IBTK / Fold change vs veh, IBTK / RFU, ESF1 / Fold change vs veh, ESF1 / Fold change vs veh, TMEM50B / RFU, TAOK1 / Fold change vs veh, TAOK1 / RFU, ACBD3 / Fold change vs veh, ACBD3 / RFU, TMA16 / Fold change vs veh, TMA16 / RFU, RWDD3 / Fold change vs veh, RWDD3 / RFU, BCAT1 / Fold change vs veh, BCAT1 / RFU, EDEM3 / Fold change vs veh, EDEM3 / RFU, TMEM33 / Fold change vs veh, TMEM33 / RFU, WDR75 / Fold change vs veh, WDR75 / RFU, AHCTF1 / Fold change vs veh, AHCTF1 / RFU, TFRC / Fold change vs veh, TFRC / RFU, ZDHHC17 / Fold change vs veh, ZDHHC17 / RFU, NOM1 / Fold change vs veh, NOM1 / RFU, ARL8B / Fold change vs veh, ARL8B / RFU, ZBTB11 / Fold change vs veh, ZBTB11 / RFU, TAMM41 / Fold change vs veh, TAMM41 / RFU, KIAA1704 /// LOC100996395 / Fold change vs veh, KIAA1704 /// LOC100996395 / RFU, ING1 / Fold change vs veh, ING1 / RFU, TRMT61B / Fold change vs veh, TRMT61B / RFU, FUBP3 / Fold change vs veh, FUBP3 / RFU, TP53 / Fold change vs veh, TP53 / RFU, TNKS2 / Fold change vs veh, TNKS2 / RFU, ZFP14 / Fold change vs veh, ZFP14 / RFU, ACTR2 / Fold change vs veh, ACTR2 / RFU, PPP3R1 / Fold change vs veh, PPP3R1 / RFU, PIK3R1 / Fold change vs veh, PIK3R1 / RFU, HNRNPA1 / Fold change vs veh, HNRNPA1 / RFU, RNF170 / Fold change vs veh, RNF170 / RFU, ZNF28 / Fold change vs veh, ZNF28 / RFU, RNGTT / Fold change vs veh, RNGTT / RFU, OGT / Fold change vs veh, OGT / RFU, BRD1 / Fold change vs veh, BRD1 / RFU, MARS / Fold change vs veh, MARS / RFU, ZNF655 / Fold change vs veh, ZNF655 / RFU, FAHD1 / Fold change vs veh, FAHD1 / RFU, BDP1 / Fold change vs veh, BDP1 / RFU, LRRCC1 / Fold change vs veh, LRRCC1 / RFU, ARID1A / Fold change vs veh, ARID1A / RFU, ZNF146 / Fold change vs veh, ZNF146 / RFU, ZNF330 / Fold change vs veh, ZNF330 / RFU, GPN3 / Fold change vs veh, GPN3 / RFU, C9orf123 / Fold change vs veh, C9orf123 / RFU, N4BP2L2 / Fold change vs veh, N4BP2L2 / RFU, ARFIP1 / Fold change vs veh, ARFIP1 / RFU, FAM179B / Fold change vs veh, FAM179B / RFU, BCL10 / Fold change vs veh, BCL10 / RFU, UHRF1BP1L / Fold change vs veh, UHRF1BP1L / RFU, BET1 / Fold change vs veh, BET1 / RFU, CNOT2 / Fold change vs veh, CNOT2 / RFU, ZNF268 / Fold change vs veh, ZNF268 / Fold change vs veh, ZNF507 / RFU, DGCR2 / Fold change vs veh, DGCR2 / RFU, WDSUB1 / Fold change vs veh, WDSUB1 / Fold change vs veh, HSP90B1 /// MIR3652 / RFU, ADSS / Fold change vs veh, ADSS / RFU, GK / Fold change vs veh, GK / RFU, ZNF148 / Fold change vs veh, ZNF148 / RFU, TAF9 / Fold change vs veh, TAF9 / RFU, SLC1A5 / Fold change vs veh, SLC1A5 / RFU, SLMO2 / Fold change vs veh, SLMO2 / RFU, ABCC4 / Fold change vs veh, ABCC4 / RFU, LOC101060439 /// RAP1B / Fold change vs veh, LOC101060439 /// RAP1B / RFU, RFX7 / Fold change vs veh, RFX7 / RFU, GTPBP10 / Fold change vs veh, GTPBP10 / RFU, CNEP1R1 / Fold change vs veh, CNEP1R1 / RFU, BIVM-ERCC5 /// ERCC5 / Fold change vs veh, BIVM-ERCC5 /// ERCC5 / RFU, ILF3 / Fold change vs veh, ILF3 / RFU 11762660_at / Fold change /veh 11762660_at / RFU VCAN (11757783_s_at) / Fold change /veh VCAN (11757783_s_at) / RFU DDX43 (11728927_at) / Fold change /veh DDX43 (11728927_at) / RFU KRT8 (11758188_x_at) / Fold change /veh KRT8 (11758188_x_at) / RFU NKD1 (11759106_at) / Fold change /veh NKD1 (11759106_at) / RFU SRD5A1 (11742802_a_at) / Fold change /veh SRD5A1 (11742802_a_at) / RFU TPSAB1 /// TPSB2 (11721975_s_at) / Fold change /veh TPSAB1 /// TPSB2 (11721975_s_at) / RFU GSTM3 (11746129_a_at) / Fold change /veh GSTM3 (11746129_a_at) / RFU IL23R (11737362_x_at) / Fold change /veh IL23R (11737362_x_at) / RFU TMEM51 (11727254_a_at) / Fold change /veh TMEM51 (11727254_a_at) / RFU PIWIL2 (11732686_x_at) / Fold change /veh PIWIL2 (11732686_x_at) / RFU ORM1 (11744905_x_at) / Fold change /veh ORM1 (11744905_x_at) / RFU CCDC152 (11743942_at) / Fold change /veh CCDC152 (11743942_at) / RFU ECM1 (11717891_a_at) / Fold change /veh ECM1 (11717891_a_at) / RFU IL23R (11748794_a_at) / Fold change /veh IL23R (11748794_a_at) / RFU TNFAIP8L3 (11732012_x_at) / Fold change /veh TNFAIP8L3 (11732012_x_at) / RFU MBOAT4 (11741988_at) / Fold change /veh MBOAT4 (11741988_at) / RFU 11764193_at / Fold change /veh 11764193_at / RFU TMEM53 (11763286_at) / Fold change /veh TMEM53 (11763286_at) / RFU MAGEB2 (11727129_at) / Fold change /veh MAGEB2 (11727129_at) / RFU TMEM200A (11744735_a_at) / Fold change /veh TMEM200A (11744735_a_at) / RFU CCDC152 (11751479_a_at) / Fold change /veh CCDC152 (11751479_a_at) / RFU FAM211A (11726209_a_at) / Fold change /veh FAM211A (11726209_a_at) / RFU RGS16 (11746705_a_at) / Fold change /veh RGS16 (11746705_a_at) / RFU VCAN (11755009_s_at) / Fold change /veh VCAN (11755009_s_at) / RFU RHOB (11743442_s_at) / Fold change /veh RHOB (11743442_s_at) / RFU RGS16 (11720943_a_at) / Fold change /veh RGS16 (11720943_a_at) / RFU RGS16 (11720944_at) / Fold change /veh RGS16 (11720944_at) / RFU, VPS4B / Fold change vs veh, VPS4B / RFU, CREB1 / Fold change vs veh, CREB1 / RFU, DNAJC13 / Fold change vs veh, DNAJC13 / RFU, GNAQ / Fold change vs veh, GNAQ / RFU, CDK5R1 / Fold change vs veh, CDK5R1 / RFU, ZRANB3 / Fold change vs veh, ZRANB3 / RFU, CUL4A / Fold change vs veh, CUL4A / RFU, CCNY / Fold change vs veh, CCNY / RFU, UFL1 / Fold change vs veh, UFL1 / RFU, COG3 / Fold change vs veh, COG3 / RFU, DIAPH2 / Fold change vs veh, DIAPH2 / RFU, SKA2 / Fold change vs veh, SKA2 / RFU, AFF3 / Fold change vs veh, AFF3 / RFU, LMF1 / Fold change vs veh, LMF1 / RFU, IPO11 / Fold change vs veh, IPO11 / RFU, DFFB / Fold change vs veh, DFFB / RFU, FOXP1 / Fold change vs veh, FOXP1 / RFU, CARD8 / Fold change vs veh, CARD8 / RFU, STRN3 / Fold change vs veh, STRN3 / RFU, ADK / Fold change vs veh, ADK / RFU, RASSF2 / Fold change vs veh, RASSF2 / RFU, WIPF1 / Fold change vs veh, WIPF1 / RFU, LARP1B / Fold change vs veh, LARP1B / RFU, RASA1 / Fold change vs veh, RASA1 / RFU, RB1 / Fold change vs veh, RB1 / RFU, PPFIA1 / Fold change vs veh, PPFIA1 / RFU, MAT2A / Fold change vs veh, MAT2A / RFU, CCT5 / Fold change vs veh, CCT5 / RFU, WDR92 / Fold change vs veh, WDR92 / RFU, CUX1 / Fold change vs veh, CUX1 / RFU, TTC7A / Fold change vs veh, TTC7A / RFU, TMEM135 / Fold change vs veh, TMEM135 / RFU, DEPTOR / Fold change vs veh, DEPTOR / RFU, CPM / Fold change vs veh, CPM / RFU, DNAJB6 / Fold change vs veh, DNAJB6 / RFU, CACNA2D3 / Fold change vs veh, CACNA2D3 / RFU, DTX4 / Fold change vs veh, DTX4 / RFU, TFCP2 / Fold change vs veh, TFCP2 / RFU, GMCL1 /// GMCL1P1 / Fold change vs veh, GMCL1 /// GMCL1P1 / RFU, AEBP2 / Fold change vs veh, AEBP2 / RFU, SNHG1 /// SNORD22 /// SNORD25 /// SNORD26 /// SNORD27 /// SNORD28 /// SNORD29 /// SNORD31 / Fold change vs veh, SNHG1 /// SNORD22 /// SNORD25 /// SNORD26 /// SNORD27 /// SNORD28 /// SNORD29 /// SNORD31 / Fold change (Aza/veh), C12orf56 (ProbeSet 11735607_a_at) / Fold change (ACY-1035/veh), C12orf56 (ProbeSet 11735607_a_at) / Fold change (Aza/veh), FGFR1OP (ProbeSet 11751329_s_at) / Fold change (ACY-1035/veh), FGFR1OP (ProbeSet 11751329_s_at) / Fold change (Aza/veh), VPS36 (ProbeSet 11739960_a_at) / Fold change (ACY-1035/veh), VPS36 (ProbeSet 11739960_a_at) / RFU SYPL1 (11715823_x_at) / Fold change /veh SYPL1 (11715823_x_at) / RFU IGFBP7 (11715501_s_at) / Fold change /veh IGFBP7 (11715501_s_at) / RFU REEP3 (11722064_at) / Fold change /veh REEP3 (11722064_at) / RFU IGLL1 (11728026_x_at) / Fold change /veh IGLL1 (11728026_x_at): dose or concentration left out as unconfirmed
Conditions: MV-4-11 cells, 48 hours

## Nc1ncn([C@@H]2O[C@H](CO)[C@@H](O)[C@H]2O)c(=O)n1 [azacitidine]
  Fold change /veh MAGEB2 (11727129_at): 2.40
